Measurements: ChEMBL document CHEMBL1159029, “An Epoxydon-Derived Ester from a Phoma sp. Pathogenic to Rhubarb” (1992)

What was measured:
[1] = test system: Datura stramonium; experiment: Phytotoxicity against Datura stramonium assessed as brownish-black necrotic lesion area at 50 ug within 48 hrs by detached leaf assay; format: functional
[2] = test system: Senna obtusifolia; experiment: Phytotoxicity against Senna obtusifolia assessed as brownish-black necrotic lesion area at 50 ug within 48 hrs by detached leaf assay; format: functional
[3] = test system: Ipomoea; experiment: Phytotoxicity against Ipomoea sp. assessed as brownish-black necrotic lesion area at 50 ug within 48 hrs by detached leaf assay; format: functional
[4] = test system: Aspergillus flavus; experiment: Antimicrobial activity against Aspergillus flavus AF3357 at 0.5 mg/disk by disk assay; format: functional, AF-3357
[5] = test system: Curtobacterium flaccumfaciens; experiment: Antimicrobial activity against Corynebacterium flaccumfaciens CF-20 at 0.5 mg/disk by disk assay; format: functional
[6] = test system: Agrobacterium tumefaciens; experiment: Antimicrobial activity against Agrobacterium tumefaciens C-58 at 0.5 mg/disk by disk assay; format: functional
[7] = test system: Phoma; experiment: Antimicrobial activity against Phoma sp. at 0.5 mg/disk by disk assay; format: functional
[8] = test system: Aspergillus flavus; experiment: Antimicrobial activity against Aspergillus flavus AF3357 at 1 mg/disk by disk assay; format: functional, AF-3357
[9] = test system: Curtobacterium flaccumfaciens; experiment: Antimicrobial activity against Corynebacterium flaccumfaciens CF-20 at 1 mg/disk by disk assay; format: functional
[10] = test system: Pectobacterium carotovorum; experiment: Antimicrobial activity against Erwinia carotovora EC-14 at 1 mg/disk by disk assay; format: functional
[11] = test system: Colletotrichum acutatum; experiment: Antimicrobial activity against Colletotrichum acutatum NC 1618 at 1 mg/disk by disk assay; format: functional
[12] = test system: Agrobacterium tumefaciens; experiment: Antimicrobial activity against Agrobacterium tumefaciens C-58 at 1 mg/disk by disk assay; format: functional
[13] = test system: Sida spinosa; experiment: Phytotoxicity against Sida spinosa assessed as brownish-black necrotic lesion area at 50 ug within 48 hrs by detached leaf assay; format: functional
[14] = test system: Escherichia coli; experiment: Antimicrobial activity against Escherichia coli DH 5alpha at 1 mg/disk by disk assay; format: functional
[15] = test system: Rheum rhabarbarum; experiment: Phytotoxicity against Rhubarb assessed as brownish-black necrotic lesion area at 50 ug up to 48 hrs by detached leaf assay; format: functional
[16] = test system: Escherichia coli; experiment: Antimicrobial activity against Escherichia coli DH 5alpha at 0.5 mg/disk by disk assay; format: functional
[17] = test system: Sorghum halepense; experiment: Phytotoxicity against Sorghum halepense assessed as brownish-black necrotic lesion area at 50 ug within 48 hrs by detached leaf assay; format: functional
[18] = test system: Chenopodium album; experiment: Phytotoxicity against Chenopodium album assessed as brownish-black necrotic lesion area at 50 ug within 48 hrs by detached leaf assay; format: functional
[19] = test system: Sorghum bicolor; experiment: Phytotoxicity against Sorghum bicolor assessed as brownish-black necrotic lesion area at 50 ug within 48 hrs by detached leaf assay; format: functional
[20] = test system: Nasturtium officinale; experiment: Phytotoxicity against Nasturtium officinale assessed as brownish-black necrotic lesions area at 50 ug within 48 hrs by detached leaf assay; format: functional
[21] = test system: Penicillium chrysogenum; experiment: Antimicrobial activity against Penicillium notatum AT-9479 at 1 mg/disk by disk assay; format: functional
[22] = test system: Penicillium chrysogenum; experiment: Antimicrobial activity against Penicillium notatum AT-9479 at 0.5 mg/disk by disk assay; format: functional
[23] = test system: Pectobacterium carotovorum; experiment: Antimicrobial activity against Erwinia carotovora EC-14 at 0.5 mg/disk by disk assay; format: functional
[24] = test system: Colletotrichum acutatum; experiment: Antimicrobial activity against Colletotrichum acutatum NC 1618 at 0.5 mg/disk by disk assay; format: functional
[25] = test system: Aspergillus flavus; experiment: Antimicrobial activity against Aspergillus flavus AF3357 at 0.25 mg/disk by disk assay; format: functional, AF-3357
[26] = test system: Penicillium chrysogenum; experiment: Antimicrobial activity against Penicillium notatum AT-9479 at 0.25 mg/disk by disk assay; format: functional
[27] = test system: Colletotrichum acutatum; experiment: Antimicrobial activity against Colletotrichum acutatum NC 1618 at 0.25 mg/disk by disk assay; format: functional
[28] = test system: Escherichia coli; experiment: Antimicrobial activity against Escherichia coli DH 5alpha at 0.25 mg/disk by disk assay; format: functional
[29] = test system: Agrobacterium tumefaciens; experiment: Antimicrobial activity against Agrobacterium tumefaciens C-58 at 0.25 mg/disk by disk assay; format: functional
[30] = test system: Pectobacterium carotovorum; experiment: Antimicrobial activity against Erwinia carotovora EC-14 at 0.25 mg/disk by disk assay; format: functional
[31] = test system: Curtobacterium flaccumfaciens; experiment: Antimicrobial activity against Corynebacterium flaccumfaciens CF-20 at 0.25 mg/disk by disk assay; format: functional

SMILES	Activity [1]	Activity [2]	Activity [3]	Diameter of inhibition zone [4]	Diameter of inhibition zone [5]	Diameter of inhibition zone [6]	Diameter of inhibition zone [7]	Activity [13]	Activity [15]	Diameter of inhibition zone [16]	Activity [17]	Activity [18]	Activity [19]	Activity [20]	Diameter of inhibition zone [22]	Diameter of inhibition zone [23]	Diameter of inhibition zone [24]	Diameter of inhibition zone [25]	Diameter of inhibition zone [26]	Diameter of inhibition zone [27]	other results
Cc1cccc(O)c1C(=O)O	48 mm2	11 mm2	15 mm2	10 mm	16 mm	18 mm	16 mm	23 mm2	55 mm2	0 mm	15 mm2	27 mm2	37 mm2	17 mm2	12 mm	0 mm	8 mm				Diameter of inhibition zone [8]: 17 mm; Diameter of inhibition zone [9]: 21 mm; Diameter of inhibition zone [10]: 0 mm; Diameter of inhibition zone [11]: 22 mm; Diameter of inhibition zone [12]: 25 mm; Diameter of inhibition zone [14]: 0 mm; Diameter of inhibition zone [21]: 18 mm
Cc1cccc(O)c1C(=O)O[C@@H]1C(=O)C(CO)=C[C@@H](O)[C@H]1O	9 mm2	33 mm2	21 mm2					24 mm2	18 mm2		7 mm2	13 mm2	41 mm2	44 mm2							
CC1=C[C@@H](O)[C@H]2O[C@H]2C1=O [DESOXYEPOXYDON]	73 mm2	51 mm2	64 mm2	22 mm	49 mm	56 mm	30 mm	74 mm2	42 mm2	44 mm	30 mm2	57 mm2	69 mm2	34 mm2	27 mm	45 mm	60 mm	15 mm	15 mm	40 mm	Diameter of inhibition zone [28]: 35 mm; Diameter of inhibition zone [29]: 43 mm; Diameter of inhibition zone [30]: 31 mm; Diameter of inhibition zone [31]: 38 mm
O=C1C(CO)=C[C@@H](O)[C@H]2O[C@@H]12 [EPOXYDON]	31 mm2	17 mm2	51 mm2	8 mm	20 mm	12 mm		25 mm2	27 mm2	25.3 mm	37 mm2	62 mm2	31 mm2	41 mm2	10 mm	17 mm	12 mm	0 mm	0 mm	10 mm	Diameter of inhibition zone [28]: 18 mm; Diameter of inhibition zone [29]: 10 mm; Diameter of inhibition zone [30]: 9 mm; Diameter of inhibition zone [31]: 12 mm
